# According to ChEMBL document CHEMBL1154019, “Sulfonamides with the N-alkyl-N'-dialkylguanidine moiety as 5-HT7 receptor ligands” (Bioorg Med Chem Lett, 2009):
# What was measured:
# [1] = target: T1, 5-hydroxytryptamine receptor 1A (Rattus norvegicus, UniProt P19327); assay: Binding affinity to 5HT1A receptor in rat hippocampus; type: tissue-based
# T1 sequence (P19327 whole entry): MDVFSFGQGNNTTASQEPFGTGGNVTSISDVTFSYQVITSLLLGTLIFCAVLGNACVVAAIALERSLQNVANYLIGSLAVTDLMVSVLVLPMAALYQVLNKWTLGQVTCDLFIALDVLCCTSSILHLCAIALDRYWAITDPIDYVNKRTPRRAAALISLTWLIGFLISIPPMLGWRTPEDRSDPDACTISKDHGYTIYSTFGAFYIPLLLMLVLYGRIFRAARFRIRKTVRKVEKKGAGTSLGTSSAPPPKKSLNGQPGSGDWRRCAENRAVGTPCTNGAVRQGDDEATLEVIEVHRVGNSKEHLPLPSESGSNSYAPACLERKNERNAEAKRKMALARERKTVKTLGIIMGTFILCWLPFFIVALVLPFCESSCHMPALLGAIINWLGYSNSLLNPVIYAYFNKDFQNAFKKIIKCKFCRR
# [2] = target: 5-hydroxytryptamine receptor 7 (Homo sapiens, UniProt P34969); assay: Binding affinity to human cloned 5HT7 receptor expressed in HEK293 cells; type: cell-based
# Sequence of 5-hydroxytryptamine receptor 7 (P34969 whole entry): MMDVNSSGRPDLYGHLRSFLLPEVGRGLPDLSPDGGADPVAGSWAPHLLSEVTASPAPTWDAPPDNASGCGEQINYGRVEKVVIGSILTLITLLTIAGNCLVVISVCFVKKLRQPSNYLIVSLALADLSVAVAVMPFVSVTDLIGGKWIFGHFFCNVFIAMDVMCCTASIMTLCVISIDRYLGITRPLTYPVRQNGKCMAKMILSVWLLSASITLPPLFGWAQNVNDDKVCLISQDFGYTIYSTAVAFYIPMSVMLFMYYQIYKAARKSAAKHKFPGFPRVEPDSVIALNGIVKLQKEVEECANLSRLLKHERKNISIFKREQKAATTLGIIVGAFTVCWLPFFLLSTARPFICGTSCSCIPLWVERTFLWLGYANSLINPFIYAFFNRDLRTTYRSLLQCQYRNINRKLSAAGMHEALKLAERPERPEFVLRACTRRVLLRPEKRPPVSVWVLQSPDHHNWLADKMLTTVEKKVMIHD
# [3] = target: 5-hydroxytryptamine receptor 2A (Rattus norvegicus, UniProt P14842); assay: Binding affinity to 5HT2A receptor in rat cortex; type: tissue-based
# Sequence of 5-hydroxytryptamine receptor 2A (P14842 whole entry): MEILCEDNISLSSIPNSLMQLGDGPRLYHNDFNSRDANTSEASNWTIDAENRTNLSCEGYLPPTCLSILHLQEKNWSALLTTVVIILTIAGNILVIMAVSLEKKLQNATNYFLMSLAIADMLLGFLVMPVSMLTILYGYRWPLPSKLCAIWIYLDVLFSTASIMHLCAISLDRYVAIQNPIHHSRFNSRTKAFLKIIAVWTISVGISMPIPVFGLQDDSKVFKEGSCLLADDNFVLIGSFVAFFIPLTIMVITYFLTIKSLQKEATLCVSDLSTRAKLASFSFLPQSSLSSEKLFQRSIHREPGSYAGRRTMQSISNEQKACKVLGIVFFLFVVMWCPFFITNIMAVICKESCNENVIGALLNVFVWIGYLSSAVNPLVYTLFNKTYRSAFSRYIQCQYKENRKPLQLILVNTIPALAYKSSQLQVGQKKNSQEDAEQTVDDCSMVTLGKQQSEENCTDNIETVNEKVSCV
# [4] = Selectivity of Ki for human 5HT7 receptor to Ki for rat 5HT1A
SMILES,Ki [1] [nM],Ki [2] [nM],Ki [3] [nM],Ratio Ki [4]
NC(=NCCCCNS(=O)(=O)c1cccc2ccccc12)N1CCc2ccccc2C1,2080,198,195,–
O=S(=O)(c1ccccc1)C1(CCCN2CCc3ccccc3C2)CCC1,35,–,65,–
"CC1CCN(CCC2CCCN2S(=O)(=O)c2cccc(O)c2)CC1 (single isomer, unassigned)",> 10000,–,> 10000,–
COc1ccccc1N1CCN(C(N)=NCCCNS(=O)(=O)c2cccc3ccccc23)CC1,9860,195,940,–
Cc1cccc(S(=O)(=O)NCCCN=C(N)N2CCC(c3ccccc3)CC2)c1,17600,276,1250,–
COc1ccccc1N1CCN(C(=O)NC(=N)NCc2cccc3ccccc23)CC1,520,–,150,–
Cc1cccc(S(=O)(=O)NCCN=C(N)N2CCC(C)CC2)c1,1100,177,148,–
COc1ccccc1N1CCN(C(=N)NCCCCNS(=O)(=O)c2ccc(C)cc2)CC1,10200,140,340,–
CCOc1ccccc1CNC(=N)NC(=O)NC,> 4000,49,400,–
Cc1cccc(S(=O)(=O)NCCN=C(N)N2CCC(c3ccccc3)CC2)c1,4550,161,160,–
COc1ccccc1N1CCN(C(N)=NCCNS(=O)(=O)c2cccc(C)c2)CC1,10400,339,1150,–
COc1ccccc1N1CCN(C(=N)NCCNS(=O)(=O)c2cccc(C)c2)CC1,–,–,–,31
COc1ccccc1N1CCN(CCCNS(=O)(=O)c2ccc3ccccc3c2)CC1,4.6,20,85,–
Cc1cccc(S(=O)(=O)NCCCCN=C(N)N2CCC(c3ccccc3)CC2)c1,12000,150,770,–
